Values after ≈ are worked out from the molar mass of the structure shown. Active and inactive are the calls of the source. No cut-off for these calls is given here.
What was measured:
Jurkat [1] = assay: Induction of apoptosis in human Jurkat T cells overexpressing Bcl2 assessed as cellular protrusions after 36 hrs by light microscopy; format: functional, cell-based
Jurkat [2] = assay: Induction of apoptosis in human Jurkat T cells overexpressing Bcl2 after 36 hrs by flow cytometry; format: functional, cell-based
Jurkat [3] = assay: Induction of microtubule damage in human Jurkat T cells overexpressing Neo after 36 hrs by immunostaining method; format: cell-based
Jurkat [4] = assay: Induction of cell cycle arrest in human Jurkat T cells overexpressing Bcl2 assessed as G2/M phase cells after 36 hrs by flow cytometry (reference value: 2.4%); format: functional
Jurkat [5] = assay: Induction of apoptosis in human Jurkat T cells overexpressing Neo assessed as cellular protrusions after 36 hrs by light microscopy; format: functional, cell-based
Jurkat [6] = assay: Induction of cell cycle arrest in human Jurkat T cells overexpressing Neo assessed as G2/M phase cells after 36 hrs by flow cytometry (reference value: 4.7%); format: functional
Jurkat [7] = assay: Induction of apoptosis in human Jurkat T cells overexpressing Neo after 36 hrs by flow cytometry; format: functional, cell-based
Jurkat [8] = assay: Induction of microtubule damage in human Jurkat T cells overexpressing Bcl2 after 36 hrs by immunostaining method; format: cell-based
Jurkat [9] = assay: cells; details: Homo sapiens, 36 h, read-out: Activity
Description: Cytotoxicity against human Jurkat T cells assessed as cell viability at 15 ug/ml after 36 hrs by MTT assay relative to control

Jurkat [10] = assay: cells; details: Homo sapiens, 36 h, read-out: Activity; remark: listed apart in the source
Description: Induction of apoptosis in human Jurkat T cells overexpressing Bcl2 assessed as cell viability at 7.5 ug/ml after 36 hrs by MTT assay

Jurkat [11] = assay: cells; details: Homo sapiens, 36 h, read-out: Activity; remark: listed apart in the source
Description: Induction of apoptosis in human Jurkat T cells overexpressing Neo assessed as cell viability at 7.5 ug/ml after 36 hrs by MTT assay

[12] = Cytotoxicity against human normal peripheral T cells after 36 hrs by MTT assay; details: T-cell
Jurkat [13] = assay: Induction of apoptosis in human Jurkat T cells overexpressing Neo assessed as cell viability at 30 ug/ml after 36 hrs by MTT assay; details: read-out: Activity
[14] = Cytotoxicity against human normal peripheral T cells assessed as cell viability at 60 ug/ml after 36 hrs by MTT assay relative to control
[15] = Cytotoxicity against human PHA-stimulated T cells assessed as cell viability at 30 ug/ml after 36 hrs by MTT assay relative to control; details: read-out: Activity
Jurkat [16] = assay: Cytotoxicity against human Jurkat T cells assessed as cell viability at 60 ug/ml after 36 hrs by MTT assay relative to control; details: read-out: Activity
[17] = Cytotoxicity against human PHA-stimulated T cells assessed as cell viability at 60 ug/ml after 36 hrs by MTT assay relative to control; details: read-out: Activity
Jurkat [18] = assay: cells; details: Homo sapiens, 36 h, read-out: Activity; remark: listed apart in the source
Description: Induction of apoptosis in human Jurkat T cells overexpressing Bcl2 assessed as cell viability at 15 ug/ml after 36 hrs by MTT assay

Jurkat [19] = assay: Cytotoxicity against human Jurkat T cells after 36 hrs by MTT assay
Jurkat [20] = assay: Cytotoxicity against human Jurkat T cells assessed as cell viability at 30 ug/ml after 36 hrs by MTT assay relative to control; details: read-out: Activity
[21] = Cytotoxicity against human PHA-stimulated T cells after 36 hrs by MTT assay; details: T-cell
Jurkat [22] = assay: Induction of apoptosis in human Jurkat T cells overexpressing Bcl2 assessed as cell viability at 30 ug/ml after 36 hrs by MTT assay; details: read-out: Activity
Jurkat [23] = assay: cells; details: Homo sapiens, 36 h, read-out: Activity; remark: listed apart in the source
Description: Induction of apoptosis in human Jurkat T cells overexpressing Neo assessed as cell viability at 15 ug/ml after 36 hrs by MTT assay

cells = details: Homo sapiens, T-cell, 36 h, read-out: Activity
Description: Cytotoxicity against human PHA-stimulated T cells assessed as cell viability at 15 ug/ml after 36 hrs by MTT assay relative to control

Structure (SMILES) | Activity (Jurkat [1]) | Activity (Jurkat [2]) | Activity (Jurkat [3]) | Activity (Jurkat [4]) | Activity (Jurkat [5]) | Activity (Jurkat [6]) | Activity (Jurkat [7]) | Activity (Jurkat [8]) | further results
COC(=O)Nc1nc2cc(C(=O)c3cccs3)ccc2[nH]1 [NOCODAZOLE] | Active | inactive | Active | 5.6% | Active | 40.3% | Active | Active | 
O=c1c(-c2ccc(O)cc2)coc2cc(O)cc(O)c12 [GENISTEIN] | inactive | inactive | inactive | 6.7% | inactive | 35% | Active | inactive | 
CCOC(C)(C)/C=C1/C=C(C(=O)O)C(O)CO1 (configuration not stated) [ARUNCIN B] |  |  |  |  |  |  |  |  | viability at 15 µg/mL (Jurkat [9]): 67.7%; viability at 7.5 µg/mL (Jurkat [10]): 81.5%; viability at 7.5 µg/mL (Jurkat [11]): 82%; IC50 [12]: > 60 µg/mL; viability at 30 µg/mL (Jurkat [13]): 44.9%; viability at 36 h, 60 ug/ml [14]: 63.8%; viability at 30 µg/mL [15]: 68.5%; viability at 60 µg/mL (Jurkat [16]): 24.5%; viability at 60 µg/mL [17]: 25%; viability at 15 µg/mL (Jurkat [18]): 71.5%; IC50 (Jurkat [19]): 22 µg/mL (≈ 90.8 µM); viability at 30 µg/mL (Jurkat [20]): 36.1%; IC50 [21]: 49 µg/mL (≈ 202 µM); viability at 30 µg/mL (Jurkat [22]): 61.2%; viability at 15 µg/mL (Jurkat [23]): 57.4%; viability at 15 µg/mL (cells): 85.9%
